Data set [1] relates to MV4-11. As to the kind of experiment: cells. The settings on record: Homo sapiens, MV4-11, 72 h.
Description: Cytotoxicity against human MV4-11 cells assessed as reduction in cell viability after 72 hrs by trypan blue dye exclusion method
The subject of a further data set is MOLM-13. Briefly: cells. As to conditions: Homo sapiens, MOLM-13, 96 h.
Data set [2] can be described thus: cells. The settings on record: Homo sapiens, ME-1, 96 h.
Description: Cytotoxicity against human ME-1 cells assessed as reduction in cell viability after 4 days by CellTiter-Blue assay
For the next data set, the system named is KG-1a. As to the kind of experiment: cells. The settings on record: Homo sapiens, 96 h.
For the next data set, the system named is KG-1. As to the kind of experiment: cells. The settings on record: Homo sapiens, KG-1, 96 h.
The test system of another data set is ML-2. Briefly: cells. The settings on record: Homo sapiens, ML-2, 96 h.
The nature of data set [3]: cells. The settings on record: Homo sapiens, MOLP-2, 96 h.
Description: Cytotoxicity against human MOLP-2 cells assessed as reduction in cell viability after 4 days by CellTiter-Blue assay
Another data set relates to IM-9. Briefly: cells. As to conditions: Homo sapiens, IM-9, 96 h.
The nature of data set [4]: cells. As to conditions: Homo sapiens, PL-21, 96 h.
Description: Cytotoxicity against human PL21 cells assessed as reduction in cell viability after 4 days by CellTiter-Blue assay
The next data set has as its system NB-4. Briefly: cells. The settings on record: Homo sapiens, NB-4, 96 h.
For data set [5], the system named is MV4-11. As to the kind of experiment: cells. As to conditions: Homo sapiens, MV4-11, 96 h.
Description: Cytotoxicity against human MV4-11 cells assessed as reduction in cell viability after 4 days by CellTiter-Blue assay
The next data set is described as follows: physchem. As to conditions: water.
A further data set relates to NOMO-1. As to the kind of experiment: cells. The settings on record: Homo sapiens, NOMO-1, 96 h.
Data set [6] can be described thus: Toxicity in NMRI nu/nu mouse assessed as lethality at 75 mg/kg/day, po for 3 days. The format is organism-based. As to conditions: in vivo, 72 h, time 3 day.
Another data set relates to OCI-AML2. Briefly: cells. The settings on record: Homo sapiens, OCI-AML2, 96 h.
For a further data set, the system named is L-363. Briefly: cells. The settings on record: Homo sapiens, L-363, 96 h.
Another data set has as its system THP-1. Briefly: cells. As to conditions: Homo sapiens, THP-1, 96 h.
Another data set has as its system KMOE-2. Briefly: cells. As to conditions: Homo sapiens, KMOE-2, 96 h.
In a further data set the test system is OCI-AML-5. Briefly: cells. The settings on record: Homo sapiens, OCI-AML-5, 96 h.
For a further data set, the system named is SKM-1. As to the kind of experiment: cells. The settings on record: Homo sapiens, SKM-1, 96 h.
Another data set deals with U-266. As to the kind of experiment: cells. As to conditions: Homo sapiens, U-266, 96 h.
The next data set has as its system HL-60. Briefly: cells. As to conditions: Homo sapiens, HL-60, 96 h.
The test system of another data set is EOL1. As to the kind of experiment: cells. The settings on record: Homo sapiens, EOL1, 96 h.
In another data set the test system is OPM-2. Briefly: cells. The settings on record: Homo sapiens, OPM-2, 96 h.
The nature of data set [7]: Toxicity in NMRI nu/nu mouse assessed as weight gain at 75 mg/kg/day, po for 3 days relative to control. The class given is organism-based. The settings on record: in vivo, 72 h, time 3 day.
For a further data set, the system named is MONO-MAC-6. Briefly: cells. The settings on record: Homo sapiens, MONO-MAC-6, 96 h.
The nature of data set [8]: cells. As to conditions: Homo sapiens, Mono-Mac-1, 96 h.
Description: Cytotoxicity against human MONO-MAC-1 cells assessed as reduction in cell viability after 4 days by CellTiter-Blue assay
A further data set relates to TF-1. As to the kind of experiment: cells. The settings on record: Homo sapiens, TF-1, 96 h.
Data set [9] in a line: cells. The settings on record: Homo sapiens, OCI-M1, 96 h.
Description: Cytotoxicity against human OCI-M1 cells assessed as reduction in cell viability after 4 days by CellTiter-Blue assay
The next data set relates to RPMI-8226. As to the kind of experiment: cells. As to conditions: Homo sapiens, RPMI-8226, 96 h.
Data set [10] addresses Receptor-type tyrosine-protein kinase FLT3 (Homo sapiens, UniProt P36888, F691L/ITD).
Description: Binding affinity to human partial length FLT3 ITD/F691L double mutant expressed in mammalian expression system by Kinomescan method
Data set [11] has as its target Receptor-type tyrosine-protein kinase FLT3 (Homo sapiens, UniProt P36888). Briefly: Inhibition of human FLT3 incubated for 30 mins by Kinobead based assay.
In data set [12] the target is Receptor-type tyrosine-protein kinase FLT3 (Homo sapiens, UniProt P36888, D835Y).
Data set [13] has as its target Receptor-type tyrosine-protein kinase FLT3 (Homo sapiens, UniProt P36888, ITD).
Data set [14] addresses Cyclin-dependent kinase 16 (Homo sapiens, UniProt Q00536). Briefly: Inhibition of human CDK16 incubated for 30 mins by Kinobead based assay.
Data set [15] concerns the target Proto-oncogene tyrosine-protein kinase receptor Ret (Homo sapiens, UniProt P07949). Briefly: Inhibition of human RET incubated for 30 mins by Kinobead based assay.
In data set [16] the target is Mitogen-activated protein kinase kinase kinase kinase 4 (Homo sapiens, UniProt O95819). Briefly: Inhibition of human MAP4K4 incubated for 30 mins by Kinobead based assay.
Mitogen-activated protein kinase kinase kinase kinase 4, sequence (O95819 whole entry, the tested form may be a part): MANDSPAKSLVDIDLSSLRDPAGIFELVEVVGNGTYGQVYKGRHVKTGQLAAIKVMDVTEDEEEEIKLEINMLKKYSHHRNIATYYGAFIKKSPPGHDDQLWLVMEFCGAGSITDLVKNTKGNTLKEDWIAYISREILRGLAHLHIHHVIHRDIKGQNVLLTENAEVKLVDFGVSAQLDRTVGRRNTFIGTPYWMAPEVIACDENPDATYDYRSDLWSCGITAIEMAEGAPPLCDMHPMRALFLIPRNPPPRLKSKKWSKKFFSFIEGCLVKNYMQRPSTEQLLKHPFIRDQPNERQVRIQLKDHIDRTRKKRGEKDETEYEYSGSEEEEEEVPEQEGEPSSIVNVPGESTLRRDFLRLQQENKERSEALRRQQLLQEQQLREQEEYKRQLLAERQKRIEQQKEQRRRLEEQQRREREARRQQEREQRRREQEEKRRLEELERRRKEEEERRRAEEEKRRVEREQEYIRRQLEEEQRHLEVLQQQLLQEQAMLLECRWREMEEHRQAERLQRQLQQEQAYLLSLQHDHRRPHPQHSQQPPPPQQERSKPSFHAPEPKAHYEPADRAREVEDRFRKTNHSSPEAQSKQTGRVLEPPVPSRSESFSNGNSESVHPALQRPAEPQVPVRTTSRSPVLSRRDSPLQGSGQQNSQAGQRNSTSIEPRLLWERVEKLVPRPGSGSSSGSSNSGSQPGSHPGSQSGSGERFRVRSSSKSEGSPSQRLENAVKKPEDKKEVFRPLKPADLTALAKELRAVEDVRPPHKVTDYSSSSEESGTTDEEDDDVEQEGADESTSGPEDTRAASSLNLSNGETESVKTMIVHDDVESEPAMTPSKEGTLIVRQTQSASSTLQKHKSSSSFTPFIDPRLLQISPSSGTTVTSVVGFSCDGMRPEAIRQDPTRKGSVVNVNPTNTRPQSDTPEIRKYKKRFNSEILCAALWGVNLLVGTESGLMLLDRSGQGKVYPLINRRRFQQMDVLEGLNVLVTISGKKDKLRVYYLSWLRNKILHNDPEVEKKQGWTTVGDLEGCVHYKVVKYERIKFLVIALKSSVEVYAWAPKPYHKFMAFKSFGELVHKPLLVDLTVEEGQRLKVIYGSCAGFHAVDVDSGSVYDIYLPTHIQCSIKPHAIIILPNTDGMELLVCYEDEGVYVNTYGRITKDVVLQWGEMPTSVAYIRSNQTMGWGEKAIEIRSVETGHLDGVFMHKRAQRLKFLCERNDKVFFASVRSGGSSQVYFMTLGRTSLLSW
Data set [17] concerns the target Discoidin domain-containing receptor 2 (Homo sapiens, UniProt Q16832). Briefly: Inhibition of human DDR2 incubated for 30 mins by Kinobead based assay.
Data set [18] deals with Mitogen-activated protein kinase kinase kinase 20 (Homo sapiens, UniProt Q9NYL2). Briefly: Inhibition of human ZAK incubated for 30 mins by Kinobead based assay.
Mitogen-activated protein kinase kinase kinase 20, sequence (Q9NYL2 whole entry): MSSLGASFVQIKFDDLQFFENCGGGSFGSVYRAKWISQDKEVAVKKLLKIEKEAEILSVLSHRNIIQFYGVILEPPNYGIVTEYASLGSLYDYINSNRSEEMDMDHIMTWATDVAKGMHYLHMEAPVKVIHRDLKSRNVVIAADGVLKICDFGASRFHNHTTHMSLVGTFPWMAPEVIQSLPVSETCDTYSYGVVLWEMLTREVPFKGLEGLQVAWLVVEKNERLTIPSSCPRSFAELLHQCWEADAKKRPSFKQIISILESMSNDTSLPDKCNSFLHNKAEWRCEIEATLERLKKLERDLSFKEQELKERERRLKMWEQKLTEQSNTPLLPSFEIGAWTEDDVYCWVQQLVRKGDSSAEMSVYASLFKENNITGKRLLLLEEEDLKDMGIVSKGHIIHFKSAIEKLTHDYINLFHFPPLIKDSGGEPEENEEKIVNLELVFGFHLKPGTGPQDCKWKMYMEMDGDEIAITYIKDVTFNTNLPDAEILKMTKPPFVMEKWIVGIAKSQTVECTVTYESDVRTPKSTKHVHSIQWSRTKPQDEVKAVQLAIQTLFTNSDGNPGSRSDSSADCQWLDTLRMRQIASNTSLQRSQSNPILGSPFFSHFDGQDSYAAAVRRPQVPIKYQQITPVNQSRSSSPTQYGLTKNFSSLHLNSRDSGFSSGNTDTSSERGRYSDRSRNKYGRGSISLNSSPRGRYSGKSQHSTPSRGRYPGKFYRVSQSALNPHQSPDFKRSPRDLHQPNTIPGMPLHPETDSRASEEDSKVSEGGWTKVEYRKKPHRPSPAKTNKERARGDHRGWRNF
Another data set concerns the target Ephrin type-A receptor 7 (Homo sapiens, UniProt Q15375). As to the kind of experiment: Inhibition of human EPHA7 incubated for 30 mins by Kinobead based assay.
The target of data set [19] is Receptor-type tyrosine-protein kinase FLT3 (Homo sapiens) (UniProt P36888). As to conditions: MV4-11, dose 20-40 nM, time 3.0 hrs.

Activity calls are given as the source filed them. The calls are words filed in the database; no cut-off is given here.

Ephrin type-A receptor 7, sequence (Q15375 whole entry): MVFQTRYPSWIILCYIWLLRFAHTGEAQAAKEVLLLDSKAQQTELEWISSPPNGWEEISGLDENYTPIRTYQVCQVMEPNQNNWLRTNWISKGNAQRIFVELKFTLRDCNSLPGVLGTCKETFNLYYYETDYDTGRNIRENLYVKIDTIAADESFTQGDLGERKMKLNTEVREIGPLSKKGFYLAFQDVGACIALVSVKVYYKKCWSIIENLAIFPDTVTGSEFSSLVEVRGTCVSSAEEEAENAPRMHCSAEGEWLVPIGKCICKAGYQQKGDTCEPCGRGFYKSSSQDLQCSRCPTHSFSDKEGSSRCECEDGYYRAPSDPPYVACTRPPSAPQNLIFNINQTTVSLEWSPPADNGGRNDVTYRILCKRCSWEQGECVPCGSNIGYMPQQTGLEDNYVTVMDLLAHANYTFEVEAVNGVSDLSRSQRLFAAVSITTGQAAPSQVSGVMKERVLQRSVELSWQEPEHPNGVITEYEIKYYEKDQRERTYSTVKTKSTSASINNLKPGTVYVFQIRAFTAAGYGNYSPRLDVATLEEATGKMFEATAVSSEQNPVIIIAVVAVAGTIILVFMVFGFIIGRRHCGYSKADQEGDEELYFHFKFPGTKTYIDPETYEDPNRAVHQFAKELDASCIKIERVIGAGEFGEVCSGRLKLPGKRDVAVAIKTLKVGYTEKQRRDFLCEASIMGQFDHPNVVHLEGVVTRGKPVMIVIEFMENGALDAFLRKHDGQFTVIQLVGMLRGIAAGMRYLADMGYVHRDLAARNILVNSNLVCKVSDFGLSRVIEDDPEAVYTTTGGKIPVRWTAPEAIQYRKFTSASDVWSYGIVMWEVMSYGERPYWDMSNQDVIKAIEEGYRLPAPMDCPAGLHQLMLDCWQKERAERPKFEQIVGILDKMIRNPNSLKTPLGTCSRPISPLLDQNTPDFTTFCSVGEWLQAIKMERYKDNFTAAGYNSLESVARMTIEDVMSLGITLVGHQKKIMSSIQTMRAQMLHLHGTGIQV
Proto-oncogene tyrosine-protein kinase receptor Ret, sequence (P07949 whole entry): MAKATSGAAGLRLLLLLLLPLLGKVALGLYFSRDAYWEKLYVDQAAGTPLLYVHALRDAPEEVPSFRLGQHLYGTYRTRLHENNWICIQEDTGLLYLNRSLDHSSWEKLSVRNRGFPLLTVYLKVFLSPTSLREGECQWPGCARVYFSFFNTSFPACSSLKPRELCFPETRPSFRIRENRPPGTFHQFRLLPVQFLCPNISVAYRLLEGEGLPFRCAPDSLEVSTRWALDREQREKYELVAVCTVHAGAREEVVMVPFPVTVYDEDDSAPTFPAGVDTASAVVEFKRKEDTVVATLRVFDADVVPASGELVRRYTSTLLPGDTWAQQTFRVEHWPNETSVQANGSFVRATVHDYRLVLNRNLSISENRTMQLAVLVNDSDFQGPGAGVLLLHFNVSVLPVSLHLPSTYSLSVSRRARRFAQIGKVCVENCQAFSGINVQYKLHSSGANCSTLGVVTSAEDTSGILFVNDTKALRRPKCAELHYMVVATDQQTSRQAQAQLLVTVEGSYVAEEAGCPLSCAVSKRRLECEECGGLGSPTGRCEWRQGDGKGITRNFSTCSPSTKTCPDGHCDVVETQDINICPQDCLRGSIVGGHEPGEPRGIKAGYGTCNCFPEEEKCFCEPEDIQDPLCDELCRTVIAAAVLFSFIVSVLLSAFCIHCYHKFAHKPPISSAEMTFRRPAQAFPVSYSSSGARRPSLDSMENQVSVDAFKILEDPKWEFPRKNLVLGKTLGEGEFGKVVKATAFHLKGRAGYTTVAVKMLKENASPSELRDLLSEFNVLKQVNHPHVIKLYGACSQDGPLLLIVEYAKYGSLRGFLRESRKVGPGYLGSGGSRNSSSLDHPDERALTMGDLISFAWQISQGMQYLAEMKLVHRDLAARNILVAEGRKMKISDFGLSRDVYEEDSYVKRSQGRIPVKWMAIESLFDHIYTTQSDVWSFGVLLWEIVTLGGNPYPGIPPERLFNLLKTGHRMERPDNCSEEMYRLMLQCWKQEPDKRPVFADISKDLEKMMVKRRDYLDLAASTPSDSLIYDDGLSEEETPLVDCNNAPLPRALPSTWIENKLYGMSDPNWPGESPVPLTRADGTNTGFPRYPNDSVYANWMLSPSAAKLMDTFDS
Cyclin-dependent kinase 16, sequence (Q00536 whole entry): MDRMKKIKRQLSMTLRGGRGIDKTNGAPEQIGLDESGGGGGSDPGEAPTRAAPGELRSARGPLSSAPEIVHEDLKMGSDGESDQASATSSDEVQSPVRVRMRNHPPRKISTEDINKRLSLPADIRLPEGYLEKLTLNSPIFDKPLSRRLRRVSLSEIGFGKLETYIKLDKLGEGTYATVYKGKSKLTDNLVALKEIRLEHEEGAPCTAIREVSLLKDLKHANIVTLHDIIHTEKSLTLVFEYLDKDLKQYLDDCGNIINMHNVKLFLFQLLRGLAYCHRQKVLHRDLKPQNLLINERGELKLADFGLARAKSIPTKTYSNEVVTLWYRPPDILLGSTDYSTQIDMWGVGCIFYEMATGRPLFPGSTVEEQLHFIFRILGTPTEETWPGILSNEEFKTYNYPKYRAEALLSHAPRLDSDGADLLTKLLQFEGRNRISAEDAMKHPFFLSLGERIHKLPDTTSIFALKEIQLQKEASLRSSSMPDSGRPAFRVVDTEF
Description for EOL1: Cytotoxicity against human EOL1 cells assessed as reduction in cell viability after 4 days by CellTiter-Blue assay
Description for HL-60: Cytotoxicity against human HL-60 cells assessed as reduction in cell viability after 4 days by CellTiter-Blue assay
Description for IM-9: Cytotoxicity against human IM-9 cells assessed as reduction in cell viability after 4 days by CellTiter-Blue assay
Description for KG-1a: Cytotoxicity against human KG-1a cells assessed as reduction in cell viability after 4 days by CellTiter-Blue assay
Description for KMOE-2: Cytotoxicity against human KMOE-2 cells assessed as reduction in cell viability after 4 days by CellTiter-Blue assay
Description for L-363: Cytotoxicity against human L-363 cells assessed as reduction in cell viability after 4 days by CellTiter-Blue assay
Description for ML-2: Cytotoxicity against human ML-2 cells assessed as reduction in cell viability after 4 days by CellTiter-Blue assay
Description for MOLM-13: Cytotoxicity against human MOLM-13 cells assessed as reduction in cell viability after 4 days by CellTiter-Blue assay
Description for MONO-MAC-6: Cytotoxicity against human MONO-MAC-6 cells assessed as reduction in cell viability after 4 days by CellTiter-Blue assay
Description for NB-4: Cytotoxicity against human NB-4 cells assessed as reduction in cell viability after 4 days by CellTiter-Blue assay
Description for NOMO-1: Cytotoxicity against human NOMO-1 cells assessed as reduction in cell viability after 4 days by CellTiter-Blue assay
Description for OCI-AML-5: Cytotoxicity against human OCI-AML5 cells assessed as reduction in cell viability after 4 days by CellTiter-Blue assay
Description for OCI-AML2: Cytotoxicity against human OCI-AML2 cells assessed as reduction in cell viability after 4 days by CellTiter-Blue assay
Description for OPM-2: Cytotoxicity against human OPM-2 cells assessed as reduction in cell viability after 4 days by CellTiter-Blue assay
Description for RPMI-8226: Cytotoxicity against human RPMI-8226 cells assessed as reduction in cell viability after 4 days by CellTiter-Blue assay
Description for SKM-1: Cytotoxicity against human SKM-1 cells assessed as reduction in cell viability after 4 days by CellTiter-Blue assay
Description for TF-1: Cytotoxicity against human TF-1 cells assessed as reduction in cell viability after 4 days by CellTiter-Blue assay
Description for THP-1: Cytotoxicity against human THP-1 cells assessed as reduction in cell viability after 4 days by CellTiter-Blue assay
Description for U-266: Cytotoxicity against human U-266 cells assessed as reduction in cell viability after 4 days by CellTiter-Blue assay
Description for physchem: Solubility of compound in water at 10 mg after 3 hrs by UV-spectra analysis

As for `CC(C)(C)c1cc(NC(=O)Nc2cnc3[nH]c(C(=O)c4cc5cc(O)ccc5[nH]4)cc3c2)no1`, in the data set on MV4-11 [1], the IC50 (usually the concentration needed to halve the response being measured) is > 100 nM.

Compound `CC(C)(C)c1cc(NC(=O)Nc2cc3cc(C(=O)c4cc5cc(O)ccc5o4)[nH]c3cn2)no1` displayed an IC50 in the data set with MV4-11 [1] of 29.8 nM. This lies in the double-digit nanomolar range.

For `CC(C)(C)c1cc(NC(=O)Nc2ccc3oc(C(=O)c4cc5cc(OC(=O)N6CCC(N7CCCCC7)CC6)ccc5[nH]4)cc3c2)no1.Cl`, the IC50 in the data set with MOLM-13 came to 0.002 nM; in the data set “cells [2]” it was 2.36 nM; with KG-1a it was 0.613 nM; with KG-1 it was 0.556 nM; in the data set on ML-2 it was 1.49 nM; in “cells [3]” it was 2.27 nM. Further, the IC50 with IM-9 came to 2.25 nM; in the data set “cells [4]”, 1.3 nM; with NB-4 it was 3.6 nM; with MV4-11 [5] it was 0.0009 nM; with NOMO-1, 1.21 nM; with OCI-AML2 it was 1.39 nM. In addition, the IC50 in the data set on L-363 was 1.61 nM; with THP-1 it was 2.12 nM; in the data set with KMOE-2, 5.33 nM; in the data set on OCI-AML-5, 0.159 nM; with SKM-1, 1.35 nM; in the data set with U-266, 1.37 nM. The IC50 in the data set on HL-60 amounted to 2.35 nM; in the data set on EOL1, 0.0001 nM; in the data set with OPM-2, 1.33 nM; in the data set on MONO-MAC-6, 0.011 nM; in “cells [8]” it was 0.001 nM; in the data set on TF-1 it was 5.31 nM. Moreover, the IC50 in the data set “cells [9]” turned out to be 0.695 nM; with RPMI-8226, 2.37 nM. For the same compound, the solubility – broadly, the concentration that dissolves in the medium under given conditions – at 3 h in the data set “physchem” came to 230 µg/mL. The Activity result in [6] is reported as “Non-Toxic”; in data set [7] it was 3%.

Compound `CC(C)(C)c1cc(NC(=O)Nc2ccc3[nH]c(C(=O)c4cc5cc(O)ccc5o4)cc3c2)no1` had an IC50 in the data set on MV4-11 [1] of 0.78 nM.

Take `CC(C)(C)c1cc(NC(=O)Nc2ccc3oc(C(=O)c4cc5cc(O)ccc5[nH]4)cc3c2)no1`: binding in [10] was put at a Kd of 115 nM. In addition, the concentration giving a half-maximal response (EC50) (in general, the concentration at which the effect is half-maximal) was determined as 1770 nM in data set [11]; 1770 nM in [14]; 2490 nM in data set [15]; 3860 nM in data set [16]; 2490 nM in data set [17]; 3260 nM in data set [18]. The EC50 on Ephrin type-A receptor 7 came out at 3260 nM. Moreover, the results for the half-inhibitory concentration (IC50) in [12] and in data set [13] were 4.84 nM and 2.3 nM, respectively. Further, the inhibition result in data set [19] was “Active”.

On to `CC(C)(C)c1nnc(NC(=O)Nc2ccc3[nH]c(C(=O)c4cc5cc(O)ccc5[nH]4)cc3c2)s1`, for which half-maximal inhibition with MV4-11 [1] (IC50) was put at 14.4 nM.

With `Cc1cccc2[nH]c(C(=O)c3cc4c(NC(=O)Nc5cc(C(C)(C)C)on5)cccc4[nH]3)cc12`, the half-inhibitory concentration (IC50) in the data set with MV4-11 [1] is > 100 nM.

For the compound `Cc1cc(NC(=O)Nc2ccc3[nH]c(C(=O)c4cc5cc(O)ccc5[nH]4)cc3c2)no1`, in the data set with MV4-11 [1], the IC50 was > 100 nM.

`CC(C)(C)c1cc(NC(=O)Nc2ccc3[nH]c(C(=O)c4cc5cc(O)ccc5[nH]4)cc3c2)no1` had an IC50 in the data set on MV4-11 [1] of 1.7 nM.

`Cc1cccc2[nH]c(C(=O)c3cc4ccc(NC(=O)Nc5cc(C(C)(C)C)on5)cc4[nH]3)cc12` gave an IC50 with MV4-11 [1] of 23.5 nM. Against the preceding compound, the IC50 is about 14-fold higher.

In the data set with MV4-11 [1], `Cc1cccc2[nH]c(C(=O)c3cc4cc(NC(=O)Nc5cc(C(C)(C)C)on5)ccc4[nH]3)cc12` gave a 50% inhibitory concentration (IC50) of 13.5 nM.

Turning to `Cc1cccc2[nH]c(C(=O)c3cc4cccc(NC(=O)Nc5cc(C(C)(C)C)on5)c4[nH]3)cc12`, the IC50 in the data set with MV4-11 [1] is > 100 nM.

The values are drawn from ChEMBL document CHEMBL4680233, “A series of novel aryl-methanone derivatives as inhibitors of FMS-like tyrosine kinase 3 (FLT3) in FLT3-ITD-positive acute myeloid leukemia” (Eur J Med Chem, 2020).
